Target: Rat nNOS (Rattus norvegicus, UniProt P29476)
Experiment: NOS inhibition assay, Ki for rat nNOS
Assay type: biochemical

Row | Structure (SMILES) | increase in nNOS potency (8a vs 1b (m-chloro for m-fluoro)) [fold] | lower potency for rat nNOS (8b vs 8a) [fold]
1 | Cc1cc(N)nc(C[C@@H]2CNC[C@@H]2OCCNCC(F)(F)c2cccc(Cl)c2)c1 [Compound 8a, 6-(((3R,4R)-4-(2-((2,2-Difluoro-2-(3-chlorophenyl)ethyl)amino)ethoxy)pyrrolidin-3-yl)methyl)-4-methylpyridin-2-amine] | 1.3 | 
2 | Cc1cc(N)nc(C[C@@H]2CNC[C@@H]2OCCNCC(F)(F)c2ccccc2Cl)c1 [Compound 8b, 6-(((3R,4R)-4-(2-((2,2-Difluoro-2-(2-chlorophenyl)ethyl)amino)ethoxy)pyrrolidin-3-yl)methyl)-4-methylpyridin-2-amine] |  | 2

— publication PMC3174355 (Journal of medicinal chemistry, 2011)
